Laboratory results taken from patent US20240148664A1, “LIPID AND COMPOSITION” (SOGO PHARMACEUTICAL CO., LTD., priority 2021, published 2024).

Experiments:
[1] = siRNA / mRNA encapsulation rate of lipid nanoparticle (RiboGreen); format: physicochemical; details: mRNA encapsulation rate of lipid nanoparticle (Table 3)
Procedure: The siRNA encapsulation rate and the mRNA encapsulation rate of the lipid nanoparticle were obtained as follows. First, a surfactant (Sigma-Aldrich, Triton (registered trademark), X-100 (reducing type)) was added to the lipid nanoparticle-containing solution to disrupt the lipid nanoparticle to release the encapsulated siRNA or mRNA. The amounts of the lipid nanoparticle-containing solution and the surfactant were adjusted such that the siRNA or the mRNA was 2 pmol and the surfactant was 1% in 40 μL of the solution after adding the surfactant to the lipid nanoparticle-containing solution. Next, the RiboGreen reagent (reagent that reacts with siRNA to emit fluorescence, manufactured by Thermo Fisher Scientific, Quant-iT (registered trademark) RiboGreen (registered trademark) RNA Assay Kit) was added to the solution, and the fluorescence intensity was measured under conditions of an excitation wavelength of 480 nm and a fluorescence wavelength of 520 nm with a fluorescence intensity meter (manufactured by TECAN, Infinite M200). Specifically, 75 μL of the RiboGreen reagent diluted to 1/2000 was added to a diluted solution obtained by adding 65 μL of citrate buffer to 10 μL of the solution, and the fluorescence intensity was measured. This makes it possible to relatively measure the total amount of the siRNA or the total amount of the mRNA present in the solution.
Subsequently, the RiboGreen reagent was added to the lipid nanoparticle-containing solution without adding a surfactant, and the fluorescence intensity was measured in the same manner with a fluorescence intensity meter. By not adding a surfactant, it is possible to relatively measure the amount of the siRNA or the mRNA free in the solution without being encapsulated in the lipid nanoparticle.
Then, the fluorescence intensity obtained from the solution to which the surfactant was added obtained as described above was fluorescence intensity a, and the fluorescence intensity thus obtained from the solution to which no surfactant was added obtained as described above was fluorescence intensity b, and according to the expression (a−b)/a×100, the siRNA encapsulation rate (%) or the mRNA encapsulation rate (%) of the lipid nanoparticle was obtained. Each of fluorescence intensity a and fluorescence intensity b is a value obtained by subtracting a blank from the arithmetic average value of the results of three measurements for each solution. The blank was measured by carrying out the same operation on a well containing water containing no cell or lipid nanoparticle.

[2] = Measurement of particle size, polydispersity index and zeta potential of lipid nanoparticle (Zetasizer); format: physicochemical
Procedure: 30 μL of each of the dialyzed lipid nanoparticle-containing solutions obtained by the above operation was measured out, 800 μL of ultrapure water was added to dilute the lipid nanoparticle-containing solution, and the diluted preparation solution was used to measure the particle size (nm) and the polydispersity index (PDI) by using a Zetasizer (manufactured by Malvern Panalytical, Zetasizer nano Ultra). The particle size was evaluated by Z-average in ultrapure water. The zeta potential was measured by using pH 7.4 Tris-HCl as a dilute solution.

[3] = tested on: HEK293T cells; assay: Evaluation of protein expression effect (luciferase luminescence), Cell experiment 2; format: cell-based; details: lipid nanoparticle containing mRNA, 100 ng mRNA/20 μL per well, 24 hours, amount of luminescence as index
Procedure: (§1) For lipids (Ia), (Ib), and (Ie) of Examples 1, 2, and 5, a cell experiment was carried out by using HEK293T cells and NIH3T3 cells in order to evaluate lipid nanoparticles encapsulating an mRNA. By transfecting the cells with lipid nanoparticles and measuring the amount of a predetermined protein produced, the performance of the lipid nanoparticles used can be evaluated. Hereinafter, the procedure of the cell experiment will be shown.
(§2) A. Seeding of Cells • (i) A liquid medium (DMEM High glucose, FBS+, P/S+) was temperature-controlled in an incubator set at 37° C. • (ii) A cryotube containing cells was taken out from a −80° C. freezer and thawed at once in the incubator set at 37° C. • (iii) A test tube was subjected to a centrifuge to precipitate the cells. • (iv) The supernatant was aspirated, and the liquid medium was added and gently tapped to disperse the cells. • (v) A small amount of the cells-dispersed liquid medium was collected, and the number of cells was observed and counted under a microscope. • (vi) The cells were seeded in three 24-well black plates such that the number of cells was 1×10^4 cells per well. The 24-well black plates were placed in an incubator, and the cells were cultured for 24 hours under conditions of 37° C. and 5% CO2.
(§3) B. Transfection • (i) A lipid nanoparticle-containing solution including an mRNA was concentrated such that the mRNA concentration was 100 ng/20 μL (=0.005 μg/μL). • (ii) A liquid medium (DMEM High glucose, FBS-, P/S-) and FBS were warmed to 37° C., required amounts of the liquid medium and FBS were mixed (FBS concentration of liquid medium at this time: 12.5%), and the prepared liquid medium was filter-sterilized through a 0.22 μm filter. • (iii) The liquid medium supernatant in the 24-well black plates in which the cells were cultured was aspirated and 80 μL per well of the prepared liquid medium was added. • (iv) 20 μL per well of RFW and the lipid nanoparticle-containing solution adjusted to the above concentration was added. • (v) The 24-well black plates were placed in an incubator, and the cells were cultured for 24 hours under conditions of 37° C. and 5% CO2.
(§4) C. Evaluation of Protein Expression Effect (Detection of Gaussia Luciferase (GLuc))
(§5) Evaluation of the protein expression effect was carried out by using Gaussia Luciferase Assay Kit manufactured by Thermo Scientific. • (i) The cells cultured in B. (v) above were taken out from the incubator and allowed to stand at room temperature. • (ii) 20 μL of the supernatant in the plates was collected and added to a fresh 96-well white plate. • (iii) 100× Coelenterazine and Gaussia Glow Assay Buffer attached to the kit were returned to room temperature and mixed at 1:100 to prepare a solution. The prepared solution was added to the supernatant at 50 μL per well by using a multipipette. • (iv) The plate was shielded from light with aluminum foil, allowed to stand for 10 minutes, and then measured for the amount of luminescence with a plate reader (manufactured by TECAN, Infinite M200) (measurement time: 2 seconds), and the protein expression level was calculated by using the resulting amount of luminescence as an index.

[4] = tested on: NIH3T3 cells; assay: as above; format: cell-based; details: lipid nanoparticle containing mRNA, 100 ng mRNA/20 μL per well, 24 hours, amount of luminescence as index
Procedure: as §1, §2, §3, §4, §5

[5] = tested on: HEK293T cells and NIH3T3 cells; assay: Evaluation of toxicity (CellTiter-Fluor Cell Viability Assay, CTF); format: cell-based; details: lipid nanoparticle containing mRNA; number of surviving cells relative to cells without lipid nanoparticle set at 1; one rating per lipid, printed on the HEK293T line
Procedure: as §1
as §2, with “CO2. […]” for “CO2.”
D. Evaluation of Toxicity (CellTiter-Fluor (Registered Trademark) Cell Viability Assay) • (i) The CellTiter-Fluor (registered trademark) Cell Viability (CTF) Assay Reagent was completely thawed in a 37° C. water bath. • (ii) GF-AFC Substrate was uniformly mixed by using a vortex mixer. • (iii) The required amounts of Buffer and GF-AFC Substrate attached to the CTF Assay Reagent (Kit) were mixed at a mixing ratio of 10 mL:10 μL. • (iv) 100 μL per well of the mixed CTF Reagent mixture was added to a 24-well black plate containing the cells cultured in B. (v) above, and the plate was quickly shielded from light with aluminum foil, and then shaken on a plate shaker for 30 seconds. • (v) The plate was placed in an incubator, […], and the cells were cultured for 30 minutes under conditions of 37° C. and 5% CO2. • (vi) The fluorescence intensity was measured with a plate reader (excitation wavelength of 380 nm, fluorescence wavelength of 505 nm). Based on the obtained measurement results, the number of surviving cells was calculated with the fluorescence intensity of cells to which no lipid nanoparticle was added set at 1. […]

With `CCCCCCCCCCCOC(=O)CCCCCN(CCO)CCCCCCCC(=O)OC(CCCCCCCC)CCCCCCCC` [Reference Example 1, reference compound] the “Encapsulation rate (%)” value [1] was 93%, the PDI ([2]; lipid nanoparticle containing mRNA (Table 3)) was 0.232 and the “Zeta potential (mV)” value ([2]; lipid nanoparticle containing mRNA (Table 3), pH 7.4 Tris-HCl) was −4.3 mV. The “Particle size (nm)” value ([2]; lipid nanoparticle containing mRNA, main lipid/DPPC/cholesterol=45/10/45 (r1: r1/DSPC/cholesterol/PEG2000-DMG=50/10/38.5/1.5)) was 64.4 nm, the Protein expression level [3] was 320,000 and the Protein expression level [4] was 7,000. The “CTF Assay” value [5] was “⊚ (When the number of surviving cells was more than 0.80 and 1.00 or less, a rating of double-circle (excellent) was given)”.
